According to patent US12077503B2, “Substituted cyclic amides and their use as herbicides” (FMC CORPORATION, priority 2015, dated 2024):
Where two headings read alike, the source gives them in different places.

What was measured:
Assay type in all cases: in vivo
[1] = system: ducksalad (Heteranthera limosa); experiment: Test B flooded paddy test; conditions: Heteranthera limosa, Flood, 250 g ai/ha
Procedure, shortened: (§1)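 Flooding to 3 cm over soil accompanied treatment, which consisted of adding compound to the standing water around 2-leaf plants; depth was then maintained. Visual assessment versus controls followed at 13 to 15 d (scale 0–100, 0 meaning no effect).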

[2] = system: sedge, umbrella (small-flower umbrella sedge, Cyperus difformis); experiment: Test B flooded paddy test; conditions: Cyperus difformis, Flood, 250 g ai/ha
Procedure, shortened: as §1

[3] = system: barnyardgrass (Echinochloa crus-galli); experiment: Test B flooded paddy test; conditions: Echinochloa crus-galli, Flood, 250 g ai/ha
Procedure, shortened: as §1

rice (Oryra sativa) = experiment: Test B flooded paddy test; conditions: Oryza sativa, Flood, 250 g ai/ha
Procedure, shortened: as §1

[4] = system: pigweed (Amaranthus retroflexus); experiment: Test A postemergence; conditions: Amaranthus retroflexus, post-emergence, 240 h, read-out: Plant response rating, Pigweed; for pest or weed control at 125 g/ha: 125 g ai/ha
Procedure, shortened: (§2)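 In a loam soil and sand blend, planted seeds got a preemergence directed soil spray, and young plants at the one- to two-leaf stage, 2–10 cm high, got a postemergence application; ~10 d greenhouse hold; injury rated visually, 0 = none, 100 = complete control.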

[5] = system: Galium (catchweed bedstraw, Galium aparine); experiment: Test A postemergence; conditions: Galium, post-emergence, 240 h, read-out: Plant response rating, Galium; for pest or weed control at 125 g/ha: 125 g ai/ha
Procedure, shortened: as §2

Kochia (Kochia scoparia) [6] = experiment: Test A postemergence; conditions: Bassia scoparia, post-emergence, 240 h, read-out: Plant response rating, Kochia; for pest or weed control at 125 g/ha: 125 g ai/ha
Procedure, shortened: as §2

corn (Zea mays) = experiment: Test A postemergence; conditions: Zea mays, post-emergence, 240 h; for Corn plant response rating (crop injury, 0 = no effect, 100 = complete kill) at 125 g/ha: 125 g ai/ha
Procedure, shortened: as §2

[7] = system: pigweed (Amaranthus retroflexus); experiment: Test A preemergence; conditions: Amaranthus retroflexus, pre-emergence, 240 h, read-out: Plant response rating, Pigweed; for pest or weed control at 500 g/ha: 500 g ai/ha; for pest or weed control at 125 g/ha: 125 g ai/ha
[8] = system: giant foxtail (Setaria faberii); experiment: Test A preemergence; conditions: Setaria faberi, pre-emergence, 240 h, read-out: Plant response rating, Foxtail, Giant; for pest or weed control at 500 g/ha: 500 g ai/ha; for pest or weed control at 125 g/ha: 125 g ai/ha
Procedure, shortened: as §2

[9] = system: barnyardgrass (Echinochloa crus-galli); experiment: Test A preemergence; conditions: Echinochloa crus-galli, pre-emergence, 240 h, read-out: Plant response rating, Barnyardgrass; for pest or weed control at 500 g/ha: 500 g ai/ha; for pest or weed control at 125 g/ha: 125 g ai/ha
Procedure, shortened: as §2

[10] = system: ragweed (common ragweed, Ambrosia elatior); experiment: Test A preemergence; conditions: Ambrosia artemisiifolia, pre-emergence, 240 h, read-out: Plant response rating, Ragweed; for pest or weed control at 500 g/ha: 500 g ai/ha; for pest or weed control at 125 g/ha: 125 g ai/ha
Procedure, shortened: as §2

Kochia (Kochia scoparia) [11] = experiment: Test A preemergence; conditions: Bassia scoparia, pre-emergence, 240 h, read-out: Plant response rating, Kochia; for pest or weed control at 500 g/ha: 500 g ai/ha; for pest or weed control at 125 g/ha: 125 g ai/ha
Procedure, shortened: as §2

[12] = system: ryegrass, Italian (Italian ryegrass, Lolium multiflorum); experiment: Test A preemergence; conditions: Lolium multiflorum, pre-emergence, 240 h, read-out: Plant response rating, Ryegrass, Italian; for pest or weed control at 500 g/ha: 500 g ai/ha; for pest or weed control at 125 g/ha: 125 g ai/ha
Procedure, shortened: as §2

[13] = Postemergence, visual injury after approx. 10 d, 0 to 100 scale, 0 no effect, 100 complete control
[14] = Postemergence, 500 g ai/ha, visual injury, 0 to 100 scale (0 no effect, 100 complete control), approx. 10 d
[15] = preemergence, 0 to 100 scale (0 no effect, 100 complete control)
[16] = Preemergence, 0 to 100 scale (0 no effect, 100 complete control)
[17] = postemergence, visual injury after approximately 10 d, 0 to 100 scale (0 no effect, 100 complete control)
[18] = preemergence, visual rating after approx. 10 d, 0 to 100 scale where 0 is no effect and 100 is complete control
[19] = preemergence, 0 to 100 scale, 0 = no effect, 100 = complete control

## O=C1NC[C@H](c2cccc(C(F)(F)F)n2)[C@H]1C(=O)Nc1cccc(F)c1F [Compound 1385]
[1]; 360 h, visually evaluated after 13 to 15 d, read-out: Plant response rating, Ducksalad (0 to 100 scale where 0 is no effect and 100 is complete control)
  pest or weed control at 250 g/ha: 40%
[2]; 360 h, visually evaluated after 13 to 15 d, read-out: Plant response rating, Sedge, Umbrella (0 to 100 scale where 0 is no effect and 100 is complete control)
  pest or weed control at 250 g/ha: 0%
[3]; 360 h, visually evaluated after 13 to 15 d, read-out: Plant response rating, Barnyardgrass (0 to 100 scale where 0 is no effect and 100 is complete control)
  pest or weed control at 250 g/ha: 0%
Rice (Oryra sativa); 360 h, visually evaluated after 13 to 15 d, read-out: Plant response rating, Rice (0 to 100 scale where 0 is no effect and 100 is complete control)
  pest or weed control at 250 g/ha: 0%
[4]; [13]
  pest or weed control at 125 g/ha: 0%
[4]; [14]
  pest or weed control at 500 g/ha: 0%
[5]; [13]
  pest or weed control at 125 g/ha: 30%
[5]; [14]
  pest or weed control at 500 g/ha: 50%
Kochia (Kochia scoparia) [6]; [13]
  pest or weed control at 125 g/ha: 0%
Kochia (Kochia scoparia) [6]; [14]
  pest or weed control at 500 g/ha: 0%
Corn (Zea mays); [13]
  Corn plant response rating (crop injury, 0 = no effect, 100 = complete kill) at 125 g/ha: 0%
Corn (Zea mays); [14]
  Corn plant response rating (crop injury, 0 = no effect, 100 = complete kill) at 500 g/ha: 20%
[7]; [15]
  pest or weed control at 500 g/ha: 0%
[7]; [16]
  pest or weed control at 125 g/ha: 0%
[8]; [15]
  pest or weed control at 500 g/ha: 90%
[8]; [16]
  pest or weed control at 125 g/ha: 90%
[9]; [15]
  pest or weed control at 500 g/ha: 90%
[9]; [16]
  pest or weed control at 125 g/ha: 90%
[10]; [15]
  pest or weed control at 500 g/ha: 0%
[10]; [16]
  pest or weed control at 125 g/ha: 0%
Kochia (Kochia scoparia) [11]; [15]
  pest or weed control at 500 g/ha: 20%
Kochia (Kochia scoparia) [11]; [16]
  pest or weed control at 125 g/ha: 0%
[12]; [15]
  pest or weed control at 500 g/ha: 0%
[12]; [16]
  pest or weed control at 125 g/ha: 0%

## CCc1cc(CC)cc([C@H]2CN(C)C(=O)[C@@H]2C(=O)Nc2cccc(F)c2F)c1 [Compound 736]
[1]; scale of 0 to 100 where 0 is no effect and 100 is complete control, read-out: Ducksalad plant response rating
  pest or weed control at 250 g/ha: 40%
[2]; scale of 0 to 100 where 0 is no effect and 100 is complete control, read-out: Sedge, Umbrella plant response rating
  pest or weed control at 250 g/ha: 0%
[3]; scale of 0 to 100 where 0 is no effect and 100 is complete control, read-out: Barnyardgrass plant response rating
  pest or weed control at 250 g/ha: 40%
Rice (Oryra sativa); scale of 0 to 100 where 0 is no effect and 100 is complete control, read-out: Rice plant response rating
  pest or weed control at 250 g/ha: 0%
[4]; [17]
  pest or weed control at 125 g/ha: 20%
[5]; [17]
  pest or weed control at 125 g/ha: 50%
Kochia (Kochia scoparia) [6]; [17]
  pest or weed control at 125 g/ha: 20%
Corn (Zea mays); [17]
  Corn plant response rating (crop injury, 0 = no effect, 100 = complete kill) at 125 g/ha: 90%
[7]; [18]
  pest or weed control at 125 g/ha: 0%
[7]; [19]
  pest or weed control at 500 g/ha: 20%
[8]; [18]
  pest or weed control at 125 g/ha: 90%
[8]; [19]
  pest or weed control at 500 g/ha: 90%
[9]; [18]
  pest or weed control at 125 g/ha: 90%
[9]; [19]
  pest or weed control at 500 g/ha: 90%
[10]; [18]
  pest or weed control at 125 g/ha: 0%
[10]; [19]
  pest or weed control at 500 g/ha: 20%
Kochia (Kochia scoparia) [11]; [18]
  pest or weed control at 125 g/ha: 20%
Kochia (Kochia scoparia) [11]; [19]
  pest or weed control at 500 g/ha: 70%
[12]; [18]
  pest or weed control at 125 g/ha: 90%
[12]; [19]
  pest or weed control at 500 g/ha: 90%
